Results from patent US8877707B2, “Inhibitors of HCV NS5A” (Presidio Pharmaceuticals, Inc., priority 2010, dated 2014).

Tested on: HCV genotype 1b replicon in Huh 7 cells
Assay: HCV replicon assay (1b_Huh-Luc/Neo-ET cell line, luciferase readout)
Type: cell-based
Conditions: Hepatitis C virus; Table 1; genotype 1b replicon, Huh 7 cells, 72 h, luciferase; read-out: Inhibition of HCV genotype 1b
Protocol: Biological activity of the compounds of the invention was determined using an HCV replicon assay. The 1b_Huh-Luc/Neo-ET cell line persistently expressing a bicistronic genotype 1b replicon in Huh 7 cells was obtained from ReBLikon GMBH. This cell line was used to test compound inhibition using luciferase enzyme activity readout as a measurement of compound inhibition of replicon levels.
On Day 1 (the day after plating), each compound is added in triplicate to the cells. Plates incubated for 72 h prior to running the luciferase assay. Enzyme activity was measured using a Bright-Glo Kit (cat. number E2620) manufactured by Promega Corporation. The following equation was used to generate a percent control value for each compound. % Control=(Average Compound Value/Average Control)*100
The EC50 value was determined using GraphPad Prism and the following equation: Y=Bottom+(Top−Bottom)/(1+10^((Log IC50−X)*HillSlope))
EC50 values of compounds are repeated several times in the replicon assay.

SMILES | EC50 [nM]
COC(=O)N[C@H](C(=O)N1CCC[C@H]1c1ncc(-c2ccc(-c3ccc4cc(-c5c[nH]c([C@@H]6CCCN6C(=O)[C@H](NC(=O)NC(C)(C)C)c6ccccc6)n5)ccc4c3)cc2)[nH]1)C(C)C [compound 23] | < 1
COC(=O)N[C@H](C(=O)N1CCC[C@H]1c1nc(-c2ccc3cc(-c4ccc(-c5cnc([C@@H]6CCCN6C(=O)[C@H](NC(=O)NC6CC6)c6ccccc6)[nH]5)cc4)ccc3c2)c[nH]1)C(C)C [compound 24] | < 1
COC(=O)N[C@H](C(=O)N1CCC[C@H]1c1nc(-c2ccc3cc(-c4ccc(-c5cnc([C@@H]6CCCN6C(=O)[C@H](NC(=O)NC(C)(C)C)c6ccccc6)[nH]5)cc4)ccc3c2)c[nH]1)C(C)C [compound 25] | < 1
COC(=O)N[C@H](C(=O)N1CCC[C@H]1c1nc(-c2ccc3nc(-c4ccc(-c5cnc([C@@H]6CCCN6C(=O)[C@H](NC(=O)OC)c6ccccc6)[nH]5)cc4)ccc3c2)c[nH]1)C(C)C [compound 26] | < 1
CCNC(=O)N[C@@H](C(=O)N1CCC[C@H]1c1ncc(-c2ccc(-c3ccc4cc(-c5c[nH]c([C@@H]6CCCN6C(=O)[C@@H](NC(=O)OC)C(C)C)n5)ccc4c3)cc2)[nH]1)c1ccccc1 [compound 27] | < 1
CCNC(=O)N[C@@H](C(=O)N1CCC[C@H]1c1nc(-c2ccc3cc(-c4ccc(-c5cnc([C@@H]6CCCN6C(=O)[C@@H](NC(=O)OC)C(C)C)[nH]5)cc4)ccc3c2)c[nH]1)c1ccccc1 [compound 28] | < 1
COC(=O)N[C@H](C(=O)N1CCC[C@H]1c1ncc(-c2ccc(-c3ccc4cc(-c5c[nH]c([C@@H]6CCCN6C(=O)[C@H](NC(=O)NC6CC6)c6ccccc6)n5)ccc4c3)cc2)[nH]1)C(C)C [compound 29] | < 1
COC(=O)N[C@H](C(=O)N1CCC[C@H]1c1nc(-c2ccc3nc(-c4ccc(-c5cnc([C@@H]6CCCN6C(=O)[C@H](NC(=O)OC(C)(C)C)c6ccccc6)[nH]5)cc4)ccc3c2)c[nH]1)C(C)C [compound 30] | < 1
CNC(=O)N[C@@H](C(=O)N1CCC[C@H]1c1ncc(-c2ccc(-c3ccc4cc(-c5c[nH]c([C@@H]6CCCN6C(=O)[C@@H](NC(=O)OC)C(C)C)n5)ccc4n3)cc2)[nH]1)c1ccccc1 [compound 31] | < 1
COC(=O)N[C@H](C(=O)N1CCC[C@H]1c1nc(-c2cnc3cc(-c4ccc(-c5cnc([C@@H]6CCCN6C(=O)[C@H](NC(=O)OC)c6ccccc6)[nH]5)cc4)ccc3c2)c[nH]1)C(C)C [compound 32] | < 1
CCNC(=O)N[C@@H](C(=O)N1CCC[C@H]1c1ncc(-c2ccc(-c3ccc4cc(-c5c[nH]c([C@@H]6CCCN6C(=O)[C@@H](NC(=O)OC)C(C)C)n5)ccc4n3)cc2)[nH]1)c1ccccc1 [compound 33] | < 1
COC(=O)N[C@H](C(=O)N1CCC[C@H]1c1nc(-c2ccc3nc(-c4ccc(-c5cnc([C@@H]6CCCN6C(=O)[C@H](NC(=O)NC6CC6)c6ccccc6)[nH]5)cc4)ccc3c2)c[nH]1)C(C)C [compound 34] | < 1
COC(=O)N[C@H](C(=O)N1CCC[C@H]1c1ncc(-c2ccc(-c3ccc4cc(-c5c[nH]c([C@@H]6CCCN6C(=O)[C@H](NC(=O)OC(C)(C)C)c6ccccc6)n5)ccc4n3)cc2)[nH]1)C(C)C [compound 35] | < 1
CNC(=O)N[C@@H](C(=O)N1CCC[C@H]1c1nc(-c2ccc3nc(-c4ccc(-c5cnc([C@@H]6CCCN6C(=O)[C@@H](NC(=O)OC)C(C)C)[nH]5)cc4)ccc3c2)c[nH]1)c1ccccc1 [compound 36] | < 1
CCNC(=O)N[C@@H](C(=O)N1CCC[C@H]1c1nc(-c2ccc3nc(-c4ccc(-c5cnc([C@@H]6CCCN6C(=O)[C@@H](NC(=O)OC)C(C)C)[nH]5)cc4)ccc3c2)c[nH]1)c1ccccc1 [compound 37] | < 1
COC(=O)N[C@H](C(=O)N1CCC[C@H]1c1ncc(-c2ccc(-c3ccc4cc(-c5c[nH]c([C@@H]6CCCN6C(=O)[C@H](NC(=O)NC6CC6)c6ccccc6)n5)ccc4n3)cc2)[nH]1)C(C)C [compound 38] | < 1
COC(=O)N[C@H](C(=O)N1CCC[C@H]1c1ncc(-c2ccc(-c3ccc4cc(-c5c[nH]c([C@@H]6CCCN6C(=O)[C@@H](NC(=O)OC)C6CCOCC6)n5)ccc4n3)cc2)[nH]1)C(C)C [compound 39] | < 1
COC(=O)N[C@H](C(=O)N1CCC[C@H]1c1ncc(-c2ccc(-c3ccc4cc(-c5c[nH]c([C@@H]6CCCN6C(=O)[C@@H](NC(=O)OC)[C@@H](C)OC)n5)ccc4n3)cc2)[nH]1)C(C)C [compound 40] | < 1
COC(=O)N[C@@H](C)C(=O)N1CCC[C@H]1c1nc(-c2ccc3nc(-c4ccc(-c5cnc([C@@H]6CCCN6C(=O)[C@@H](NC(=O)OC)C(C)C)[nH]5)cc4)ccc3c2)c[nH]1 [compound 41] | < 1
COC(=O)N[C@H](C(=O)N1CCC[C@H]1c1nc(-c2ccc3nc(-c4ccc(-c5cnc([C@@H]6CCCN6C(=O)[C@@H](NC(=O)OC)C6CCOCC6)[nH]5)cc4)ccc3c2)c[nH]1)C(C)C [compound 42] | < 1

SMILES | EC50 [nM]
COC(=O)N[C@H](C(=O)N1CCC[C@H]1c1nc(-c2ccc3nc(-c4ccc(-c5cnc([C@@H]6CCCN6C(=O)[C@@H](NC(=O)OC)[C@@H](C)OC)[nH]5)cc4)ccc3c2)c[nH]1)C(C)C [compound 43] | < 1
COC(=O)N[C@@H](C)C(=O)N1CCC[C@H]1c1ncc(-c2ccc(-c3ccc4cc(-c5c[nH]c([C@@H]6CCCN6C(=O)[C@@H](NC(=O)OC)C(C)C)n5)ccc4n3)cc2)[nH]1 [compound 44] | < 1
COC(=O)N[C@H](C(=O)N1CCC[C@H]1c1ncc(-c2ccc(-c3ccc4cc(-c5c[nH]c([C@@H]6CCCN6C(=O)[C@H](NC(=O)OC)c6ccccc6)n5)cnc4c3)cc2)[nH]1)C(C)C [compound 45] | < 1
COC(=O)N[C@H](C(=O)N1CCC[C@H]1c1nc(-c2ccc3cc(-c4ccc(-c5cnc([C@@H]6CCCN6C(=O)[C@@H](NC(=O)OC)C6CCOCC6)[nH]5)cc4)ccc3c2)c[nH]1)C(C)C [compound 46] | < 1
COC(=O)N[C@H](C(=O)N1CCC[C@H]1c1ncc(-c2ccc(-c3ccc4cc(-c5c[nH]c([C@@H]6CCCN6C(=O)[C@@H](NC(=O)OC)C6CCOCC6)n5)ccc4c3)cc2)[nH]1)C(C)C [compound 47] | < 1
COC(=O)N[C@H](C(=O)N1CCC[C@H]1c1ncc(-c2ccc(-c3ccc4cc(-c5c[nH]c([C@@H]6CCCN6C(=O)[C@H](NC(=O)OC)c6ccccc6)n5)ccc4c3)nc2)[nH]1)C(C)C [compound 48] | < 1
COC(=O)N[C@H](C(=O)N1CCC[C@H]1c1nc(-c2cnc3cc(-c4ccc(-c5cnc([C@@H]6CCCN6C(=O)[C@@H](NC(=O)OC)C6CCOCC6)[nH]5)cc4)ccc3c2)c[nH]1)C(C)C [compound 49] | < 1
COC(=O)N[C@H](C(=O)N1CCC[C@H]1c1ncc(-c2ccc(-c3ccc4cc(-c5c[nH]c([C@@H]6CCCN6C(=O)[C@@H](NC(=O)OC)C6CCOCC6)n5)cnc4c3)cc2)[nH]1)C(C)C [compound 50] | < 1
COC(=O)N[C@H](C(=O)N1CCC[C@H]1c1nc(-c2ccc3cc(-c4ccc(-c5cnc([C@@H]6CCCN6C(=O)[C@@H](NC(=O)OC)C6CCOCC6)[nH]5)cn4)ccc3c2)c[nH]1)C(C)C [compound 51] | < 1
COC(=O)N[C@H](C(=O)N1CCC[C@H]1c1ncc(-c2ccc(-c3ccc4cc(-c5c[nH]c([C@@H]6CCCN6C(=O)[C@@H](NC(=O)OC)C6CCOCC6)n5)ccc4c3)nc2)[nH]1)C(C)C [compound 52] | < 1
COC(=O)N[C@H](C(=O)N1CCC[C@H]1c1nc(-c2ccc3nc(-c4ccc(-c5cnc([C@@H]6CCCN6C(=O)[C@@H](NC(=O)OC)C(C)C)[nH]5)nc4)ccc3c2)c[nH]1)C(C)C [compound 53] | < 1
COC(=O)N[C@@H](C(=O)N1CCC[C@H]1c1nc(-c2ccc3nc(-c4ccc(-c5cnc([C@@H]6CCCN6C(=O)[C@H](NC(=O)OC)c6ccccc6)[nH]5)nc4)ccc3c2)c[nH]1)c1ccccc1 [compound 54] | < 1
COC(=O)N[C@H](C(=O)N1CCC[C@H]1c1nc(-c2ccc3cc(-c4ccc(-c5cnc([C@@H]6CCCN6C(=O)[C@H](NC(=O)OC)c6ccccc6)[nH]5)cn4)ccc3c2)c[nH]1)C(C)C [compound 56] | < 1
COC(=O)N[C@H](C(=O)N1CCC[C@H]1c1nc(-c2cnc3cc(-c4ccc(-c5cnc([C@@H]6CCCN6C(=O)[C@@H](NC(=O)OC)C(C)C)[nH]5)cc4F)ccc3c2)c[nH]1)C(C)C [compound 57] | < 1
COC(=O)N[C@H](C(=O)N1CCC[C@H]1c1ncc(-c2ccc(-c3ccc4cc(-c5c[nH]c([C@@H]6CCCN6C(=O)[C@H](NC(=O)OC)c6ccccc6)n5)cnc4c3)c(F)c2)[nH]1)C(C)C [compound 58] | < 1
COC(=O)N[C@H](C(=O)N1CCC[C@H]1c1ncc(-c2ccc(-c3ccc4cc(-c5c[nH]c([C@@H]6CCCN6C(=O)[C@@H](NC(=O)OC)C6CCOCC6)n5)cnc4c3)c(F)c2)[nH]1)C(C)C [compound 59] | < 1
COC(=O)N[C@H](C(=O)N1CCC[C@H]1c1ncc(-c2ccc(-c3ccc4cc(-c5c[nH]c([C@@H]6CCCN6C(=O)[C@H](NC(=O)OC)c6ccccc6)n5)cnc4c3)nc2)[nH]1)C(C)C [compound 60] | < 1
COC(=O)N[C@H](C(=O)N1CCC[C@H]1c1ncc(-c2ccc(-c3ccc4cc(-c5c[nH]c([C@@H]6CCCN6C(=O)[C@@H](NC(=O)OC)C6CCOCC6)n5)cnc4c3)nc2)[nH]1)C(C)C [compound 61] | < 1
COC(=O)N[C@H](C(=O)N1CCC[C@H]1c1nc(-c2cnc3cc(-c4ccc(-c5cnc([C@@H]6CCCN6C(=O)[C@@H](NC(=O)OC)C6CCOCC6)[nH]5)cn4)ccc3c2)c[nH]1)C(C)C [compound 62] | < 1
